Literature values as cited in patent US20010046957A1, “Method for treating hepatitis C” (priority 1999, published 2001).

Assays:
[1] = tested on: yellow fever virus; details: (Neyts J)
[2] = tested on: HCV; details: patients with CHC virus infection following liver transplant, after initiation of MMF therapy for rejection; anecdotal report (Platz KP)
[3] = tested on: HCV
[4] = patients treated at currently recommended doses
[5] = in vivo

COc1c(C)c2c(c(O)c1C/C=C(\C)CCC(=O)OCCN1CCOCC1)C(=O)OC2 [MMF, mycophenolate mofetil]
antiviral activity [1]: antiviral activity | serum HCV RNA levels [2]: decrease in some patients

NC(=O)c1ncn([C@@H]2O[C@H](CO)[C@@H](O)[C@H]2O)n1 [Ribavirin, 1-β-D-ribofuranosyl-1 H-1 ,2,-4-triazole-3-carboxamide]
improvement of sustained virological response rates over IFN-α monotherapy ([3]; ribavirin combined with IFNα, CHC (Lai MY; Reichard O)): approximately 2 fold | end of treatment virological response ([3]; ribavirin combined with a pegylated form of IFN-α2A, small pilot study of safety (Sulkowski M.)): 70% | sustained loss of detectable virus ([3]; ribavirin plus IFNα regimen, treated patients (McHutchison JG)): 30 - 40% | significant hemolysis, patients affected [4]: 10-20%

IFN-α
sustained response ([3]; IFN-α monotherapy, general CHC populations (Fried M)): 5-20%

Mycophenolic acid [MPA]
bioavailability [5]: limited
